# Test results as given in patent publication US4791215A, “Derivatives of glutamic acid and aspartic acid” (priority 1984, dated 1988).
# Where “and” joins values, the source holds several entries; their conditions need not be identical. Identical values can stand only once.
# Assays:
# normal pancreatic cells = assay: Trophic action of CCK-8 on normal pancreas; type: in vivo, hamsters; conditions: CCK-8 10 mcg/kg 3 times per day
# Description: (§1) The anti-cholecystokinin effect of the most powerful of the compounds which are the subject of the present invention, that is the compound C-7, on the trophic activity of CCK on normal pancreatic cells and on those of a pancreatic adenocarcinoma is to be studied.
# (§2) Male hamsters were inoculated in the cheek pouches with a suspension of 1×10^5 tumoral cells of a pancreatic adenocarcinoma. Five days after the inoculation the animals were divided at random into 4 groups of 10 animals each, that is, a control group, a group of animals treated with 10 μg/kg of CCK-8 three times a day, a group of animals treated with 5 mg/kg i.p. of compound C-7 three times a day, and a fourth group treated simultaneously with the compound C-7 and CCK-8 in the manner described above.
# (§3) After 15 days of this treatment, the animals were killed, and the normal pancreas and the inoculated pancreatic tumours in the cheek pouches were collected and weighed. The DNA was extracted and measured according to conventional techniques.
# (§4) The results thus obtained are given in Table 13, expressed as mean values (±S.E.)
# [1] = test system: pancreatic adenocarcinoma; type: in vivo, hamsters
# Description: as §1, §2, §3, §4
# [2] = test system: CCK-8 induced contraction of rabbit colon; assay: Anti-spastic activity in the colon stimulated by CCK-8; type: in vivo
# Experimental: A much more specific anti-spastic activity, that is adhering much more to a physiological situation, is illustrated by the following experiment.
# The abdomen of an anaesthetised rabbit was cut open to show the transverse colon. A small balloon full of water was inserted at the point established and connected to a pressure transducer by means of a polythene cannula filled with water.
# The optimum sensitivity was fixed in relation to the physiological conditions and the products were administered through the femoral vein. Contractions were induced by the administration of 100 ng/kg of CCK.
# [3] = test system: CCK-8 induced contraction of guinea pig gall bladder; assay: Anti-CCK activity on gall bladder strips in vitro; conditions: CCK-8 10 ng/ml
# In short: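 CCK-8 at 10 ng/ml drove isometric contraction of guinea pig gall bladder strips held at 32 °C in oxygenated Krebs (O2/CO2 95:5). Antagonism was measured at graded compound concentrations and reported as ED50, in μg/ml, for 50% inhibition of the contraction.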
# [4] = test system: intestinal transit of carbon; assay: Anti-spastic activity, vegetable carbon intestinal transit test; type: in vivo, mice; conditions: Mus musculus, ip; read-out: antispastic activity ED50 (dose reducing intestinal transit of carbon by 50%)
# Description: The anti-spastic activity which the present compounds exert on the entire digestive system is also notable. Measured in mice with the vegetable carbon test (rate of transit through the stomach and the intestine), this activity is illustrated in the following table.
# claimed administered intraperitoneally in mice. Values
# expressed as the ED 50 in mg/kg, that is the dose which
# reduces the intestinal transit of carbon by 50%
# biliary flow = assay: Biliary flow (choleretic activity); type: in vivo, rat
# Experimental: The following experiment was carried out: a cannula was inserted in the bile duct of a rat anaesthetised with urethane, together with a small needle connected to a polythene tube, and the bile liquid was thus collected. The collection was carried out for one hour before the intravenous administration of the tested compounds and for a further two hours after administration, the samples collected at 30 minute intervals being weighed.
# In order to prevent possible dehydration of the animals, 0.5 ml of physiological solution was administered at 30 minute intervals up to a total of 3 ml.
# morphine analgesia = assay: Increase in analgesia of morphine, Tail Flick Test (Experiment 1); type: in vivo, rats
# In short: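 Tail-flick latency to 75 °C radiant heat, capped at 8 s, measured in male non-fasted rats weighing 150-200 g. Percentage change per animal derived from pre-treatment baseline versus post-drug readings at 10-90 min (10, 20, 30, 45, 60, 90 min).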
# [5] = test system: CCK-8 induced contraction of guinea pig gall bladder; assay: Anti-CCK-8 activity on gall bladders in situ; type: in vivo; conditions: for percentage inhibition of contracting effect of CCK-8: single experiments
# Experimental: In order to confirm the evidence of the studies in vitro several of the more interesting compounds were tested in vivo on guinea pig gall baldders in situ.
# The method used is that described by Ljungberg (Svensk. Farm. Tidskr. 68, 351-354, 1964).
# Guinea pigs having a weight of about 400 g, anaesthetised with urethane, were used; the substances under examination were administered intraveneously into the jugular vein.
# The responses of the gall bladders to the substances under test were detected by means of a force transducer and recorded by means of a microdynamometer. The optimum contracting dose was chosen as 10 ng/kg of CCK-8. The antagonist compounds tested were administered in increasing doses so as to enable the calculation of an ED50 value, that is in the dose (in mg/kg i.v.) capable of inhibiting 50% of the contracting effect of 10 ng/kg i.v. of CCK-8.
# The results obtained are given in Table 7 below, which gives the doses used and the effects obtained expressed as a percentage inhibition of the contracting effect of CCK-8 as well as the ED50 found.
# [6] = CCK-8 10 mcg/kg 3 times per day
compound,measurement,setting,value
CCK-8: the biologically active component of the cholecystokinin hormone [reference compound],Pancreas weight,normal pancreatic cells,600 ± 54.1 mg
same,Pancreatic DNA,normal pancreatic cells,1.5 ± 0.11 mg
same,TUMORAL DNA,[1]; [6],0.7 ± 0.13 mg
same,Weight of Pancreatic Carcinoma,[1]; [6],180 ± 15.2 mg
same,animals died during the treatment,"[1]; CCK-8 10 mcg/kg 3 times per day, of 10",2 animals
same,effect on growth of pancreatic adenocarcinoma / CCK-8 actions,"[1]; hamster, in vivo",stimulates the growth of a pancreatic adenocarcinoma
"CCCCN(CCCC)C(=O)C(CCC(=O)O)NC(=O)c1ccc(Cl)c(Cl)c1 (racemic) [Compound C-6, D,L-4-(3,4-dichloro-benzoyl-amino)-5-(di-n-butylamino)-5-oxo-pentanoic acid]",effect on CCK-8 stimulated colon,"[2]; 0.1 mg/kg iv, single experiments",0
same,ED50,"[2]; Oryctolagus cuniculus, iv, CCK 100 ng/kg",1.53 mg/kg
same,ED50 (concentration antagonising 50% of contracting effect of CCK-8),[3],0.33 µg/mL
same,ED50,[4],29.5 mg/kg
same,% increase in biliary flow with respect to controls,biliary flow; 3 mg/kg i.v.,+40.4%
same,% increase in biliary flow with respect to controls,biliary flow; 10 mg/kg i.v.,+69.8%
same,% increase in biliary flow with respect to controls,biliary flow; 30 mg/kg i.v.,+88.7%
same,ED50,"biliary flow; Rattus norvegicus, iv, average over 2 hours, read-out: ED50 (dose causing 50% increase in biliary flow)",4.2 mg/kg
same,percentage variation of latency of pain sensation,"morphine analgesia; 10', compound 10 mg/kg i.p. + morphine 2 mg/kg",89.2%
same,percentage variation of latency of pain sensation,"morphine analgesia; 20', compound 10 mg/kg i.p. + morphine 2 mg/kg",91.3 ± 8.7%
same,percentage variation of latency of pain sensation,"morphine analgesia; 30', compound 10 mg/kg i.p. + morphine 2 mg/kg",83.6 ± 10.0%
same,percentage variation of latency of pain sensation,"morphine analgesia; 45', compound 10 mg/kg i.p. + morphine 2 mg/kg",82.1 ± 16.6%
same,percentage variation of latency of pain sensation,"morphine analgesia; 60', compound 10 mg/kg i.p. + morphine 2 mg/kg",79.8 ± 17.0%
same,percentage variation of latency of pain sensation,"morphine analgesia; 90', compound 10 mg/kg i.p. + morphine 2 mg/kg",38.2%
same,"M (10-90) ± SE, mean percentage variation of latency","morphine analgesia; mean 10-90 min, compound 10 mg/kg i.p. + morphine 2 mg/kg",77.4 ± 19.6%
same,Power ratio with respect to morphine alone,"morphine analgesia; rat, in vivo",2.59
same,percentage inhibition of contracting effect of CCK-8,[5]; 0.01 mg/kg i.v.,-12.9%
same,percentage inhibition of contracting effect of CCK-8,[5]; 0.03 mg/kg i.v.,-49.7% and -40.0%
same,block of gall bladder contractions induced by CCK-8,[5]; 0.1 mg/kg,can block gall bladder contractions induced by CCK-8
same,percentage inhibition of contracting effect of CCK-8,[5]; 1 mg/kg i.v.,-100.0%
same,ED50,"[5]; Cavia porcellus, iv, CCK-8 10 ng/kg i.v., read-out: ED50 (inhibition of 50% of contracting effect of CCK-8)",0.05 mg/kg
